According to patent publication US11518760B2 (Liverpool School of Tropical Medicine, priority 2017, dated 2022):

System: Wolbachia in adult Brugia malayi
Experiment: Adult Brugia malayi mouse model, Wolbachia wsp qPCR
Format: in vivo
Details: Table 5A; BALB/c CCR3−/− mice, oral; dose/duration stands in the drawing (not visible)
From the text: (§1) In an adult Brugia malayi mouse model treatment groups (BALB/c CCR3−/− mice, 6-8 week old) received compounds by oral delivery for 7-28 days beginning at 6-10 weeks post-infection intraperitoneal with Brugia malayi third-stage larvae. Following treatment, at 12 weeks past-infection, adult worms and released microfilariae were recovered from the peritoneal cavity, counted and staged for sex. Genomic DNA was extracted from individual adult worms (10/group) and quantification of the Wolbachia surface protein (wBm-wsp) performed by quantitative PCR.
Treatment dosage unit is mg/kg (MK) and duration stated in days (d). Abbreviations: MIN (minocycline), bid (twice daily), Ms (mesylate). Data in Table 5A are expressed as a reduction in Wolbachia load in comparison to the vehicle control group.
(§2) Table 5B provides a comparison of two stereoisomers in the adult Brugia malayi mouse model above at a range of doses and durations of treatment. Data in Table 5B are expressed as a reduction in Wolbachia load in comparison to the vehicle control group.

Compound	% Wolbachia reduction cf median Vehicle [%]
C[C@H]1COCCN1c1nc(NCc2cccnc2C(F)(F)F)c2cccnc2n1 [drawing 694]	98.5
CC1COCCN1c1nc(NCc2cccnc2C(F)(F)F)c2cccnc2n1 (stereo not drawn) [drawing 692]	97.8
CC1COCCN1c1nc(NCc2cccnc2C(F)(F)F)c2cccnc2n1 (stereo not drawn) [drawing 693]	98.8
CC(C)N(C)c1nc(NCc2cccnc2C(F)(F)F)c2cccnc2n1 [drawing 691]	99.4

Same assay, conditions: Table 5B, two stereoisomers at a range of doses and durations; dose/duration stands in the drawing (not visible)

Compound	% Wolbachia reduction cf median Vehicle [%]
C[C@H]1COCCN1c1nc(NCc2cccnc2C(F)(F)F)c2cccnc2n1 [drawing 695]	99.7
C[C@@H]1COCCN1c1nc(NCc2cccnc2C(F)(F)F)c2cccnc2n1 [drawing 699]	99.6
C[C@@H]1COCCN1c1nc(NCc2cccnc2C(F)(F)F)c2cccnc2n1 [drawing 701]	82.2
C[C@H]1COCCN1c1nc(NCc2cccnc2C(F)(F)F)c2cccnc2n1 [drawing 696]	99.9

System: Brugia malayi microfilariae
Experiment: Adult Brugia malayi mouse model, microfilaria production
Format: in vivo
Details: Table 5B, two stereoisomers at a range of doses and durations; dose/duration stands in the drawing (not visible)
From the text: as §1, §2

Compound	% Microfilaria (Mf) production reduction cf median Vehicle [%]
C[C@H]1COCCN1c1nc(NCc2cccnc2C(F)(F)F)c2cccnc2n1 [drawing 695]	100
C[C@@H]1COCCN1c1nc(NCc2cccnc2C(F)(F)F)c2cccnc2n1 [drawing 699]	100
C[C@@H]1COCCN1c1nc(NCc2cccnc2C(F)(F)F)c2cccnc2n1 [drawing 701]	91.4
C[C@H]1COCCN1c1nc(NCc2cccnc2C(F)(F)F)c2cccnc2n1 [drawing 696]	100

System: C6/36 Aedes albopictus cell line infected with Wolbachia pipientis (Wolbachia strain wAlbB)
Experiment: In vitro insect cell line assay (anti-Wolbachia screen, SYTO 11 high content imaging)
Format: cell-based
Details: 168 h; C6/36 Aedes albopictus cells infected with Wolbachia pipientis wAlbB, 7 days incubation, SYTO 11 imaging; read-out: In vitro anti-Wolbachia activity
Summary of the method: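 Wolbachia wAlbB-infected C6/36 Aedes albopictus cells were exposed to compounds at a final 5 μM for 7 days at 26 °C, with DMSO-medium wells as untreated controls. Cells were then stained with SYTO 11 for 15 min, imaged by high-content microscopy and scored by texture analysis.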

Compound	EC50 [nM]
FC1(F)CCN(c2nc(N3CCC3c3ccccc3C(F)(F)F)c3cccnc3n2)CC1 (stereo not drawn) [Example 213, 2-(4,4-difluoropiperidin-1-yl)-4-(2-(2-(trifluoromethyl)phenyl)azetidin-1-yl)pyrido[2,3-d]pyrimidine]	10 to 100
O=C(Nc1ccc(F)cc1)Nc1nc(NCc2cccnc2C(F)(F)F)c2cccnc2n1 [Example 204, 1-(4-fluorophenyl)-3-(4-(((2-(trifluoromethyl)pyridin-3-yl)methyl)amino)pyrido[2,3-d]pyrimidin-2-yl)urea]	10 to 100
CC1CN(c2nc(NCc3ccccc3C(F)(F)F)c3cccnc3n2)CCO1 (stereo not drawn) [Example 248, 2-(2-methylmorpholino)-N-(2-(trifluoromethyl)benzyl)pyrido[2,3-d]pyrimidin-4-amine]	0.01 to 1
CN1CCN(CCNc2nc(NCc3ccccc3C(F)(F)F)c3sccc3n2)CC1 [Example 92, N^2-(2-(4-methyipiperazin-1-yl)ethyl)-N^4-(2-(trifluoromethyl)benzyl)thieno[3,2-d]pyrimidine-2,4-diamine]	1000 to 100000
COc1ccc(CNc2nc(NC(C)C)nc3ccsc23)cc1OC [Example 133, N^4-(3,4-dimethoxybenzyl)-N^2-isopropylthieno[3,2-d]pyrimidine-2,4-diamine]	1000 to 100000
FC(F)(F)c1cccc(CNc2ncnc3ccsc23)c1 [Example 81]	1000 to 100000
CC1(C#N)CCN(c2nc(NCc3ccccc3C(F)(F)F)c3cccnc3n2)CC1 [Example 261, (2-(trifluoromethyl)pyridin-3-yl)metha 4-methyl-1-(4-((2-(trifluoromethyl)benzyl)amino)pyrido[2,3-d]pyrimidin-2-yl)piperidine-4-carbonitrile]	< 0.01
CC(C)Nc1nc(NC2(c3ccccc3Cl)CC2)c2sccc2n1 [Example 48, N^4-(1-(2-chlorophenyl)cyclopropyl)-N^2-isopropylthieno[3,2-d]pyrimidine-2,4-diamine]	100 to 1000
CNc1nc(NCc2cccnc2C(F)(F)F)c2cccnc2n1 [Example 149, N^2-methyl-N^4-((2-(trifluoromethyl)pyridin-3-yl)methyl)pyrido[2,3-d]pyrimidine-2,4-diamine]	100 to 1000
FC(F)(F)c1ccccc1CNc1nc(NC2COC2)nc2ncccc12 [Example 144, N^2-(oxetan-3-yl)-N^4-(2-(trifluoromethyl)benzyl)pyrido[2,3-d]pyrimidine-2,4-diamine]	10 to 100
FC1CN(c2nc(NCc3cccnc3C(F)(F)F)c3cccnc3n2)C1 [Example 200, 2-(3-fluoroazetidin-1-yl)-N-((2-(trifluoromethyl)pyridin-3-yl)methyl)pyrido[2,3-d]pyrimidin-4-amine]	10 to 100
FC(F)(F)c1ncccc1CNc1nc(N2CCOC3(CCCC3)C2)nc2ncccc12 [Example 272, 2-(6-oxa-9-azaspiro[4.5]decan-9-yl)-N-((2-(trifluoromethyl)pyridin-3-yl)methyl)pyrido[2,3-d]pyrimidin-4-amine]	0.01 to 1
CC1COCCN1c1nc(N2CCC2c2ccccc2C(F)(F)F)c2cccnc2n1 (stereo not drawn) [Example 214, 3-methyl-4-(4-(2-(2-(trifluoromethyl)phenyl)azetidin-1-yl)pyrido[2,3-d]pyrimidin-2-yl)morpholine]	0.01 to 1
CC1COCCN1Cc1nc(NCc2ccccc2C(F)(F)F)c2cccnc2n1 (stereo not drawn) [Example 224]	1000 to 100000
FC(F)(F)c1ncccc1CNc1nc(N2CCOCC2C2CC2)nc2ncccc12 (stereo not drawn) [Example 253, 2-(3-cyclopropylmorpholino)-N-((2-(trifluoromethyl)pyridin-3-yl)methyl)pyrido[2,3-d]pyrimidin-4-amine]	1 to 10
FC(F)(F)c1ccccc1C1CCCN1c1ncnc2ccsc12 (stereo not drawn) [Example 79]	100 to 1000
O=C(Nc1ncnc2ccsc12)c1ccccc1Cl [Example 40, 2-chloro-N-(thieno[3,2-d]pyrimidin-4-yl)benzamide]	1000 to 100000
CC(C)[S+]([O-])c1nc(NCc2cccnc2C(F)(F)F)c2cccnc2n1 (stereo not drawn) [Example 178, 2-(isopropylsulfinyl)-N-((2-(trifluoromethyl)pyridin-3-yl)methyl)pyrido[2,3-d]pyrimidin-4-amine]	1000 to 100000
CC(Nc1ncnc2cc(I)sc12)c1ccccc1C(F)(F)F (stereo not drawn) [Example 96, 6-iodo-N-(1-(2-(trifluoromethyl)phenyl)ethyl)thieno[3,2-d]pyrimidin-4-amine]	1000 to 100000
Cc1ccc(Nc2nc(NC(C)C)nc3ccsc23)c(C)c1 [Example 32, N^4-(2,4-dimethylphenyl)-N^2-isopropylthieno[3,2-d]pyrimidine-2,4-diamine]	1000 to 100000
CC(C)Nc1nc(N(C)Cc2ccccc2C(F)(F)F)c2sccc2n1 [Example 50, N^2-isopropyl-N^4-methyl-N^4-(2-(trifluoromethyl)benzyl)thieno[3,2-d]pyrimidine-2,4-diamine]	10 to 100
CC1(C#N)CCN(c2nc(NCc3cccnc3C(F)(F)F)c3cccnc3n2)CC1 [Example 250, 4-methyl-1-(4-(((2-(trifluoromethyl)pyridin-3-yl)methyl)amino)pyrido[2,3-d]pyrimidin-2-yl)piperidine-4-carbonitrile]	0.01 to 1

System: Wolbachia of the target parasite, Brugia malayi
Experiment: In vitro microfilariae (Mf) Brugia malayi screen, wsp/gst qPCR
Format: cell-based
Details: B. malayi Mf, 6 days; concentration stands in the drawing (not visible)
Method: An in vitro microfilariae (Mf) assay was used to screen against Wolbachia of the target parasite, Brugia malayi. The Mf were obtained by peritoneal lavage of gerbils (Meriones unguiculatus) harbouring a patent infection of Brugia malayi as described previously (Griffiths et al., 2010, Lab Animal).
Mf were purified using a PD-10 desalting column (Fisher) followed by centrifugation (1200 rpm for 5 minutes at room temperature) then re-suspended in filter-sterilised culture medium consisting of RPMI supplemented with heat-inactivated Foetal Calf Serum (HI-FCS), 1% Penicillin-Streptomycin and 1% Amphotericin B.
After determining the concentration of Mf, the stock solution was diluted in culture medium to ensure a final concentration of 8000 Mf/well of a 96 well plate (100 μl per well). Compounds to be tested (10 mM stock in 100% DMSO) were diluted to appropriate working concentrations in culture medium and 100 μl was added to the appropriate wells of the 96 well plate containing the Mf. Five replicates were used for each compound and each plate contained doxycycline (5 μM) and vehicle (DMSO) controls. The plates were incubated at 37° C., 5% CO2, for 6 days.
On day 6, a visual assessment of motility was performed and wells scored from 0 to 4 (where 0=no movement and 4=highly motile) in order to assess whether there were any direct effects against the Mf. To perform the anti-Wolbachia readout, DNA was extracted from each individual well using the QIAmp DNA Mini Kit (Qiagen) ‘DNA Purification from Tissues’ protocol.
The number of Wolbachia present in Mf was assessed by quantification of the Wolbachia surface protein (wsp) gene copy number and normalised to the nematode glutathione S-transferase (gst) gene by qPCR based on methods described by McGarry et al., 2004, Mol Biochem Parasitol. DNA samples were amplified in duplicate in the following 20 μl reactions containing 1× QuantiTect SYBR Green PCR master mix (Qiagen): for wsp, 0.3 μM each of forward ([…]) and reverse ([…]) primer, 3 mM MgCl2 and 2 μl of DNA. For gst, 0.35 μM of forward ([…]) and reverse primer (ATCACGGACGCCTTCACAG), 3.5 mM MgCl2 and 1 μl of DNA. qPCR was performed using the Bio-Rad CFX384 C1000 thermal cycler (Bio-Rad laboratories LTD) with a denaturation step of 95° C. for 15 min then 40 cycles at 95° C. for 15 s, 57° C. (gst) or 60° C. (wsp) for 30 s, and 72° C. for 30 s. Quantification was determined by Bio-Rad CFX manager software by comparing the DNA samples to that of a standard curve generated from serial dilution of plasmid DNA of the appropriate gene. Data in Table 3 are expressed as a reduction in Wolbachia load in comparison to the vehicle control group and normalized by positive control (doxycycline at 5 μM).

Compound	% Reduction level normalised to DOX (5 μm) [%]	% Wolbachia reduction cf. DMSO [%]
FC1(F)CCN(c2nc(NCc3cccnc3C(F)(F)F)c3cccnc3n2)CC1 [drawing 686]	98.2	88.0
CC1COCCN1c1nc(NCc2cccnc2C(F)(F)F)c2cccnc2n1 (stereo not drawn) [drawing 684]	99.8	89.4
FC(F)(F)c1ncccc1CNc1nc(N2CCC(Cl)CC2)nc2ncccc12 [drawing 687]	92.9	83.3
FC1CCN(c2nc(NCc3cccnc3C(F)(F)F)c3cccnc3n2)CC1 [drawing 685]	97.4	87.3
